{"source": "patent US8729014B2", "about": "“Specific HCV NS3 protease inhibitors” (RFS Pharma, LLC, priority 2010, dated 2014)", "key": {"[1]": {"target": "Hepatitis C Virus NS3/4A protease V36M (Hepatitis C virus genotype 1b, UniProt O92972, V1062M)", "sequence (O92972 1027-1657 V1062M)": "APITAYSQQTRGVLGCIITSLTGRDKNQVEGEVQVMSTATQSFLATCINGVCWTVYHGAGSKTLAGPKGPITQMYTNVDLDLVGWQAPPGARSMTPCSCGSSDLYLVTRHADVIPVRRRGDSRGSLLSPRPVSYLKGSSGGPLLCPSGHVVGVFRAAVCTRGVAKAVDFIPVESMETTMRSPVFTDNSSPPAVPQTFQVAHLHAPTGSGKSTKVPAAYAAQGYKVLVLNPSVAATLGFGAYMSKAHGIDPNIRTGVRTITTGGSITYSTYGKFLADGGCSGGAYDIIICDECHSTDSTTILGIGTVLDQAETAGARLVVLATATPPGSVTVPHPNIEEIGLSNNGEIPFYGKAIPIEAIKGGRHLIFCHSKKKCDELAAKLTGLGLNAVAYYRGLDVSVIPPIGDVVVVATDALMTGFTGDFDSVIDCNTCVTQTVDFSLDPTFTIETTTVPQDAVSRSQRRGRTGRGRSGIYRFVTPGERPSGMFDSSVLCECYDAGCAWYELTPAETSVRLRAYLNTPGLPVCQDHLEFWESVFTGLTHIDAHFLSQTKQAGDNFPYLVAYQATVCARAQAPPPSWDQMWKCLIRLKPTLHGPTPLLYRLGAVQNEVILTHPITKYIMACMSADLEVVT", "sequence (O92972 1658-1711 partner limits assumed)": "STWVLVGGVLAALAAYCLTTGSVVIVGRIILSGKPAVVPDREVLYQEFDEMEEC", "assay": "HCV NS3/4A protease FRET assay, V36M", "format": "biochemical"}, "[2]": {"test_system": "Hepatitis C Virus NS3/4A protease R155K", "assay": "biochemical", "settings": "R155K vs Wild Type"}, "[3]": {"target": "Hepatitis C Virus NS3/4A protease R155K (Hepatitis C virus genotype 1b, UniProt O92972, R1181K)", "sequence (O92972 1027-1657 R1181K)": "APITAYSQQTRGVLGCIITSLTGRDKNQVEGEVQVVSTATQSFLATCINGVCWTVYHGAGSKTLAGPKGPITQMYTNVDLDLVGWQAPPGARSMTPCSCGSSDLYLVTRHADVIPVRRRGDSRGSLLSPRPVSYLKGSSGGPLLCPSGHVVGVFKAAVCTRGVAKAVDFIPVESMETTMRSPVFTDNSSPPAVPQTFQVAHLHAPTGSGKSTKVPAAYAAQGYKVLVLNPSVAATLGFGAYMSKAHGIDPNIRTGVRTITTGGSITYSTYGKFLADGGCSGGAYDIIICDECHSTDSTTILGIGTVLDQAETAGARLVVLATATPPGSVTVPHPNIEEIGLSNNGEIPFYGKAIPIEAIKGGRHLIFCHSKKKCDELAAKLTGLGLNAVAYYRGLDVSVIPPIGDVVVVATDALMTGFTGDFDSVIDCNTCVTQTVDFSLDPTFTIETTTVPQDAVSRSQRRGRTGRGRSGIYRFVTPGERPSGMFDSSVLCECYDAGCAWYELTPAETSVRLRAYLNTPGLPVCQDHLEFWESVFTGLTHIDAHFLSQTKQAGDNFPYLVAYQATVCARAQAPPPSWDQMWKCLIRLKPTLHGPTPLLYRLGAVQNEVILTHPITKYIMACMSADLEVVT", "sequence (O92972 1658-1711 partner limits assumed)": "as the sequence (O92972 1658-1711 partner limits assumed) above", "assay": "biochemical"}, "[4]": {"target": "Hepatitis C Virus NS3/4A protease D168A (Hepatitis C virus genotype 1b, UniProt O92972, D1194A)", "sequence (O92972 1027-1657 D1194A)": "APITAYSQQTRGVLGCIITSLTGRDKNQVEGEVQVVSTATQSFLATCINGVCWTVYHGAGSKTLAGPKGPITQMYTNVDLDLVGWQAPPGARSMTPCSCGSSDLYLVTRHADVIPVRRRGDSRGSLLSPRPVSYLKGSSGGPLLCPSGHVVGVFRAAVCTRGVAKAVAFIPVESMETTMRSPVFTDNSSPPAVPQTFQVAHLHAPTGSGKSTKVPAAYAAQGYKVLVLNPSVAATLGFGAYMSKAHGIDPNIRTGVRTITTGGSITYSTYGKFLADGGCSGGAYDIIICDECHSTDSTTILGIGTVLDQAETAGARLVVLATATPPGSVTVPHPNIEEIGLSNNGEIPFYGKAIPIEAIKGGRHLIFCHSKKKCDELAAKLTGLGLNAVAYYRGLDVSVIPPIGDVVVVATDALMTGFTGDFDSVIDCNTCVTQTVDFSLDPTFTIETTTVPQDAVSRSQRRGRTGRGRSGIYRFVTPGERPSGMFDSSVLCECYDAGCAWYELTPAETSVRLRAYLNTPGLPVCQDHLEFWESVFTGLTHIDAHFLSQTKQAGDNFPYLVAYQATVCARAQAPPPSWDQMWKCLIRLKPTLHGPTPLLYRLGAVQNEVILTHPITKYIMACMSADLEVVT", "sequence (O92972 1658-1711 partner limits assumed)": "as the sequence (O92972 1658-1711 partner limits assumed) above", "assay": "biochemical"}, "[5]": {"test_system": "Hepatitis C Virus NS3/4A protease D168A", "assay": "biochemical", "settings": "D168A vs Wild Type"}, "[6]": {"assay": "Cytotoxicity assay in Vero cells", "format": "cell-based", "settings": "African green monkey, Vero cells", "method": "(§1) The toxicity of the compounds was assessed in Vero, human PBM, CEM (human lymphoblastoid), MT-2, and HepG2 cells, as described previously (see Schinazi R. F., Sommadossi J.-P., Saalmann V., Cannon D. L., Xie M.-Y., Hart G. C., Smith G. A. & Hahn E. F. Antimicrob. Agents Chemother. 1990, 34, 1061-67). Cycloheximide was included as positive cytotoxic control, and untreated cells exposed to solvent were included as negative controls. The cytotoxicity IC50 was obtained from the concentration-response curve using the median effective method described previously (see Chou T.-C. & Talalay P. Adv. Enzyme Regul. 1984, 22, 27-55; Belen'kii M. S. & Schinazi R. F. Antiviral Res. 1994, 25,1-11)."}, "Vero cells": {"test_system": "Vero cells", "assay": "Cytotoxicity assay in Vero cells", "format": "cell-based", "settings": "Chlorocebus sabaeus; VERO cells, 100 μM", "method": "as §1"}, "Cathepsin S": {"target": "T1, Cathepsin S (Homo sapiens, UniProt P25774)", "T1 construct": "purchased Anaspec", "T1 sequence (P25774 115-331)": "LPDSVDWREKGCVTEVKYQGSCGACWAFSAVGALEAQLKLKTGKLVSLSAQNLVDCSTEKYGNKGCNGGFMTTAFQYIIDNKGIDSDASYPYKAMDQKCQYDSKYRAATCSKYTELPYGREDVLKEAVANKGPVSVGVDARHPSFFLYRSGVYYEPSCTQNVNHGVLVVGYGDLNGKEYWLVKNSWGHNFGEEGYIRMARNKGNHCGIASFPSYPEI", "assay": "Inhibition of human proteases: cathepsin S", "format": "biochemical", "method": "(§2) In an effort to circumvent similar toxicities, new protease inhibitors were evaluated for inhibition of a panel of important human proteases. The enzymes tested are Elastase (Neutrophil), Plasmin, Thrombin, and Cathepsin S.\nCathespsin S (Sensolyte Cathepsin S Activity Assay Kit (Anaspec)): Reactions were conducted in a sample volume of 100 μL per well in a black 96 well plate. Protocol A was followed from the kit insert where DTT was added to assay buffer to yield a […] concentration. Included in each assay were a positive control (diluted enzyme and no test compound), inhibitor control (contains diluted enzyme and plasmin inhibitor; component E or thrombin inhibitor; N-a-NAPAP synthetic inhibitor) and substrate control (assay buffer and substrate). Vehicle and autofluorescence controls were also performed. Drug dilutions were added (10 μL) at 10× concentrations in assay buffer. The cathepsin S was added at 40 μL/well at a concentration of 2.5 μg/mL to all wells except the substrate control. Finally, 50 µL of assay buffer containing substrate was added to each well. The substrate was added to a final concentration of 16 nM. […] The fluorescence intensity was read on the Victor 3 plate reader at Ex/Em=490 nm/520 nm. […] Results are shown as substrate control adjusted percentages of maximum absorbance, which was given by the positive control."}, "[7]": {"test_system": "Hepatitis C Virus NS3/4A protease D168V", "assay": "biochemical", "settings": "D168V vs Wild Type"}, "[8]": {"target": "Hepatitis C Virus NS3/4A protease D168V (Hepatitis C virus genotype 1b, UniProt O92972, D1194V)", "sequence (O92972 1027-1657 D1194V)": "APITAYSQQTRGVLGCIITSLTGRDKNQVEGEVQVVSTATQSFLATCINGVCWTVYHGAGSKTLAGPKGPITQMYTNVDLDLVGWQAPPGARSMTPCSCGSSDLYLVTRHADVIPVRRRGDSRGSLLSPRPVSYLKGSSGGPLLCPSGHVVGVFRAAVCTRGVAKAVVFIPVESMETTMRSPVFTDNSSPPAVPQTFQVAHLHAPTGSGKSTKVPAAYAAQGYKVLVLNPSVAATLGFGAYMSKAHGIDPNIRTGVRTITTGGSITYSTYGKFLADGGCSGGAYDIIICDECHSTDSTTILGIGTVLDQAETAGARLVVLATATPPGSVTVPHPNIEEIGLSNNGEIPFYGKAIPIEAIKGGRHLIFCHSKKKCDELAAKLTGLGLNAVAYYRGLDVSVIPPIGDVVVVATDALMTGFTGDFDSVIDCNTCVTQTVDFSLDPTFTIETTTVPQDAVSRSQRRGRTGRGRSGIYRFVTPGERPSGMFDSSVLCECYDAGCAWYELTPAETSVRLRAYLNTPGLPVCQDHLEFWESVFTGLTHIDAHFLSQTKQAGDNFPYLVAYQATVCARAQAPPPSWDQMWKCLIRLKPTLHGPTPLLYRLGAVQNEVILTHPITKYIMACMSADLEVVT", "sequence (O92972 1658-1711 partner limits assumed)": "as the sequence (O92972 1658-1711 partner limits assumed) above", "assay": "biochemical"}, "[9]": {"assay": "Cytotoxicity assay in human PBM cells", "format": "cell-based", "settings": "human, human PBM cells", "method": "as §1"}, "human PBM cells": {"test_system": "human PBM cells", "assay": "Cytotoxicity assay in human PBM cells", "format": "cell-based", "settings": "Homo sapiens, PBMC; PBM cells, 100 μM", "method": "as §1"}, "[10]": {"target": "T2, Elastase (Human Neutrophil) (Homo sapiens, UniProt P08246)", "T2 construct": "purchased Athens Research and Technology 16-14-051200", "T2 sequence (P08246 30-267)": "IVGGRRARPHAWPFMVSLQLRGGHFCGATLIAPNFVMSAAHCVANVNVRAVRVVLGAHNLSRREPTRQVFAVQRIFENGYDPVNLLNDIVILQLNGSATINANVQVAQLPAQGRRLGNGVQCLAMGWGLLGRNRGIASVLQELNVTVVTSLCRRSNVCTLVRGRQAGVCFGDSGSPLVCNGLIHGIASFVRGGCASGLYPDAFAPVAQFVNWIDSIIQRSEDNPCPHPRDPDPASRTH", "assay": "Inhibition of human proteases: elastase", "format": "biochemical", "method": "as §2\nElastase (Human Neutrophil (Cat #16-14-051200 Athens Research and Technology, Athens Ga.)): Reactions were conducted in a sample volume of 100 μL per well in a clear 96 well plate. A 2× assay buffer was made containing 200 mM Tris-HCl (pH 7.5), 150 mM NaCl and 50% glycerol. For each sample 50 μL 2× assay buffer was added to each well. The substrate (MeOSuc-AAPV-pNA, Chromogenic Substrate, Cat #P-213, Enzo Life Sciences, Plymouth Meeting, Pa.; 50 mM stock in DMSO) was added to a final concentration of 1 mM. The drug dilutions were added (25 μL) at 4× concentrations in water. Finally, a mixture was made of 1 μL elastase and 22 μL water for each sample and 23 μL was added to each well. The samples were incubated at room temperature for 30 min. The absorbance at 405 nm was read on the Victor 3 plate reader. All samples were tested in duplicate. Results are shown as blank adjusted (no Elastase) percentages of maximum absorbance, which was given by a no inhibitor control."}, "[11]": {"target": "T3, Hepatitis C Virus NS3/4A protease V170A (UniProt Q9WMX2, V1196A, species not given)", "T3 construct": "other: V170A; Anti-HCV protease activity EC90", "format": "biochemical", "settings": "V170A"}, "[12]": {"test_system": "Hepatitis C Virus NS3/4A protease V170A", "format": "biochemical", "settings": "V170A vs Wild Type"}, "Chymo-trypsin": {"test_system": "Chymo-trypsin", "assay": "Inhibition of human proteases: chymotrypsin", "format": "biochemical"}, "Chymase": {"target": "Chymase (Homo sapiens, UniProt P23946)", "sequence (P23946 22-247)": "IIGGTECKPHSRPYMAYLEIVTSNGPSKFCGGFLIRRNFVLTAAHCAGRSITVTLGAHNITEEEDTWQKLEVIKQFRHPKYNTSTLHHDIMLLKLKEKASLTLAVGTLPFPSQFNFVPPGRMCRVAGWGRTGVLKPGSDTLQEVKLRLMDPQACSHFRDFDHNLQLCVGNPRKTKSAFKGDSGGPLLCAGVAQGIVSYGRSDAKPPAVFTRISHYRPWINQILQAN", "assay": "Inhibition of human proteases: chymase", "format": "biochemical"}}, "note": "pEC50, pIC50: −log10 of the molar value.", "data": [{"smiles": "C=C[C@@H]1C[C@]1(NC(=O)[C@@H]1C[C@@H](OC(=O)N2Cc3cccc(F)c3C2)CN1C(=O)[C@@H](NC(=O)OC(C)(C)C)C(C)(C)C)C(=O)NS(=O)(=O)C1CC1", "note": "[Compound 10]", "values": [{"measurement": "Fold Increase of EC50", "setting": "[1]; V36M vs Wild Type", "value": 0.7}, {"measurement": "Fold Increase of EC90", "setting": "[1]; V36M vs Wild Type", "value": 1.5}, {"measurement": "pEC50", "setting": "[1]; V36M, read-out: Anti-HCV protease activity EC50", "value": 8.47}, {"measurement": "EC90", "setting": "[1]; V36M, read-out: Anti-HCV protease activity EC90", "value": 45.5, "unit": "nM"}, {"measurement": "Fold Increase of EC50", "setting": "[2]", "value": 55.8}, {"measurement": "Fold Increase of EC90", "setting": "[2]", "value": 91.4}, {"measurement": "pEC50", "setting": "[3]", "value": 6.57}, {"measurement": "EC90", "setting": "[3]; R155K, read-out: Anti-HCV protease activity EC90", "value": 2700, "unit": "nM"}, {"measurement": "pEC50", "setting": "[4]", "value": 6.24}, {"measurement": "EC90", "setting": "[4]; D168A, read-out: Anti-HCV protease activity EC90", "value": 8300, "unit": "nM"}, {"measurement": "Fold Increase of EC50", "setting": "[5]", "value": 115.3}, {"measurement": "Fold Increase of EC90", "setting": "[5]", "value": 278.5}, {"measurement": "pIC50", "setting": "[6]", "value": "< 4.00"}, {"measurement": "inhibition at 100 µM", "setting": "Vero cells", "value": -0.8, "unit": "%"}, {"measurement": "pIC50", "setting": "Cathepsin S", "value": "< 4.00"}, {"measurement": "Fold Increase of EC50", "setting": "[7]", "value": 8.1}, {"measurement": "Fold Increase of EC90", "setting": "[7]", "value": 21.1}, {"measurement": "pEC50", "setting": "[8]", "value": 7.40}, {"measurement": "EC90", "setting": "[8]; D168V, read-out: Anti-HCV protease activity EC90", "value": 630, "unit": "nM"}, {"measurement": "pIC50", "setting": "[9]", "value": "< 4.00"}, {"measurement": "inhibition at 100 µM", "setting": "human PBM cells", "value": 17, "unit": "%"}, {"measurement": "pIC50", "setting": "[10]", "value": "< 4.00"}, {"measurement": "pEC50", "setting": "[11]; read-out: Anti-HCV protease activity EC50", "value": 8.26}, {"measurement": "EC90", "setting": "[11]; read-out: Anti-HCV protease activity EC90", "value": 9.5, "unit": "nM"}, {"measurement": "Fold Increase of EC50", "setting": "[12]", "value": 1.1}, {"measurement": "Fold Increase of EC90", "setting": "[12]", "value": 0.3}, {"measurement": "pIC50", "setting": "Chymo-trypsin", "value": "< 4.00"}, {"measurement": "pIC50", "setting": "Chymase", "value": "< 4.00"}]}]}
